Laboratory results published in patent US10538549B2, “NNA-DNA adducts as biomarkers for detecting exposure to thirdhand smoke” (The Regents of the University of California, priority 2014, dated 2020).
“Also recorded” adds a separate entry of the source.

Columns and labels:
2-deoxyguanosine (dGuo) = assay: reaction of NNA with dGuo in vitro, DNA adduct formation; conditions: HPLC-UV, ESI-MS/MS, NMR
Excerpt: (§1) We recently examined the genotoxicity of NNA in human HepG2 cells as well as its ability to modify both 2-deoxyguanosine (dGuo) and 2-deoxycytodine (dCyt) in vitro. […] In the reaction of NNA with dGuo, several adducts were identified with HPLC-UV spectrum, ESI-MS/MS and NMR. These include 8-oxo-2′-deoxyguanosine (8-oxo-dG), 0^6-methyl-dG, and N^2-methyl-dG. NNA also forms a bulky dG adduct with m/z 455.17 for (M+H)^+ in mass spectrum, which is due to the condensation of NNA and dG with the elimination of H2O and two hydrogen molecules. In addition, NNA causes novel DNA sugar damage, forming […]. […] In addition, the NNA-specific DNA adducts identified can be used as specific biomarkers of THS exposure.
We discovered that NNA reacts with dGuo (“dG”) and dCyt (“dC”) to form various DNA adducts. […] The chemical structure of this adduct has been proposed and validated using various NMR experiments. Because of its specific structural characteristic, this adduct can serve as a DNA damage “signature” by NNA, thus a potential biomarker for monitoring exposure to thirdhand smoke.
(§2) Using the alkaline Comet assay, we examined the potential of NNA to cause DNA strand breaks in cultured human hepatocellular carcinoma (HepG2) cells. […]

HepG2 cells = assay: alkaline Comet assay, DNA strand breaks; type: cell-based; conditions: human HepG2 cells, exposure 24 h, 37° C.
Excerpt: as §1
FIGS. 3A and 3B: Genotoxic effect of NNA in human HepG2 cells as measured by the Comet assay. HepG2 cells were exposed to varying doses of NNA dissolved in DMEM medium with/without 10% FBS for 24 h. […] (A) Effect of acute THS and THS+HONO. HepG2 cells were exposed to samples at 37° C. for 24 h. The extent of DNA damage was analyzed by % DNA in tail to total DNA from 90 cells. (B) HepG2 cells were exposed to chronic THS at varying dilutions under identical conditions as above.
as §2

2-deoxycytidine (dCyt) = assay: reaction of NNA with dCyt in vitro, adduct formation
Excerpt: NNA (1-(N-methyl-N-nitrosamino)-1-(3-pyridinyl)-4-butanal) is an important member of the carcinogenic/mutagenic tobacco-specific nitrosamines (TSNAs) and an unique constituent found in the most recently identified health risk called thirdhand smoke (THS). We studied the reactions of NNA with 2-deoxyguanosine (dGuo) and 2-deoxycytidine (dCyt) in vitro with regard to its ability to form stable base adducts, which have not been reported in literature at all. Herein we have identified and characterize potential specific THS biomarkers. We also describe experimental evidence for detrimental effects from exposure to THS, which could be useful for framing and enforcing new policies against indoor smoking.
Herein we describe the first evidence that reaction of NNA with dCyt in vitro results in formation of stable base adducts too, which have not been hereto for been reported in literature.
Using the alkaline Comet assay, we examined the potential of NNA to cause DNA strand breaks in cultured human hepatocellular carcinoma (HepG2) cells. Moreover, the ability of NNA to form DNA adducts with dGuo and dCyt in vitro was investigated and characterized using HPLC-UV, electrospray ionization mass spectrometry (ESI-MS/MS) and NMR. […]

SMILES | formation of DNA adducts with dGuo (2-deoxyguanosine (dGuo)) | DNA damage / DNA strand breaks (Comet assay) (HepG2 cells) | formation of adducts with dC (2-deoxycytidine (dCyt))
CN(N=O)C(CCC=O)c1cccnc1 (stereo not shown) [NNA, 1-(N-methyl-N-nitrosamino)-1-(3-pyridinyl)-4-butanal] | forms multiple DNA adducts in vitro | concentration-dependent DNA strand breaks; also recorded: induces DNA damage at low nanomolar concentrations; also recorded: results in DNA strand breaks in exposed cells; also recorded: causes significant DNA damage at nM concentrations | reacts with dC to form multiple adducts
CN(CCCC(=O)c1cccnc1)N=O [NNK, 4-(methylnitrosamino)-1-(3-pyridyl)-1-butanone, reference compound] | – | induces DNA damage at low nanomolar concentrations; also recorded: causes significant DNA damage at nM concentrations | –
